Results on 5 molecules are retold here after patent US20110263631A1, “COMBINATION OF A SEROTONIN AND NOREPINEPHRINE REUPTAKE INHIBITOR AND AN OPIOID AGONIST FOR THE TREATMENT OF PAIN” (priority 2010, published 2011).

For one data set, the system named is rat formalin pain model. Description: Rat formalin model of pain (inhibition of formalin-induced flinching). It is filed as in vivo. The note with it: for SNRI Dose Response ED50 (Confidence Interval): phase 2A, SNRI IP alone or plus 1 mg/kg morphine SC, 95% CI.
For a further data set, the target named is T1, rat SERT (Rattus norvegicus, UniProt P31652).
T1 construct: from tissue; host or cells: rat cortex or lumbar spinal cord homogenate from dosed animals
The data set is described as follows: Ex vivo SERT transporter occupancy ([3H]-citalopram association). It is filed as in vivo. The note with it: 1.25 h post dose, ± Standard Error; for receptor occupancy at 3 mg/kg: 3 mg/kg IP; for receptor occupancy at 10 mg/kg: 10 mg/kg IP.

Data set [1] in a line: Pharmacokinetic studies: plasma concentrations alone or in combination. The note with it: rat; for Plasma concentrations of SNRI alone versus in combination with morphine: compound 1 3 mg/kg, duloxetine 10 mg/kg or atomoxetine 10 mg/kg IP, morphine 3 mg/kg SC or vehicle SC.
The target of another data set is T2, rat NET (Rattus norvegicus, UniProt Q63380).
T2 construct: from tissue; host or cells: rat cortex or lumbar spinal cord homogenate from dosed animals
The data set is described as follows: Ex vivo NET transporter occupancy ([3H]-nisoxetine association). It is filed as in vivo. The note with it: lumbar spinal cord, 1.25 h post dose, ± Standard Error.

In data set [2] the target is NET (Rattus norvegicus, UniProt Q63380). Description: 3H-NE uptake assay in rat brain synaptosomal preparations. As to conditions: Rat brain synaptosomes, 3H-NE uptake.
Text: (§1) Neurotransmitter uptake assays were used to measure inhibition of ^3H-serotonin (^3H-5-HT) and ^3H-norepinephrine (^3H-NE) uptake into cells expressing the respective human recombinant transporter (hSERT or hNET) and into rat brain synaptosomal preparations in order to determine the pIC50 values of test compounds at the human and rat monoamine transporters, respectively.
(§2) Rats were euthanized by decapitation. Rat freshly dissected cortical tissue pieces were suspended in ice-cold Sucrose Buffer at a ratio of 100 mg wet weight of tissue per 1 mL of buffer. The tissues were homogenized using a pre-chilled glass dounce homogenizer for 20 strokes. The homogenate was centrifuged at 1,000×g (10 min at 4° C.). The pellet was discarded and the resulting supernatant was centrifuged at 10,000×g (20 min at 4° C.) to obtain the crude synaptosomal pellet. Synaptosomes were resuspended in Sucrose Buffer and the protein concentration was determined by the method of Bradford (Bradford (1976) Analytical Biochemistry 72:24854) and used immediately following preparation.
(§3) Neurotransmitter uptake assays were performed in a 96-well assay plate in a total volume of 400 μg containing 1.5×10^4 and 2.5×10^4 cells, for SERT and NET, respectively or 10 μg cortical synaptosomal protein in assay buffer (Krebs-Ringer bicarbonate buffer containing HEPES (10 mM), CaCl2 (2.2 mM), ascorbic acid (200 μM) and pargyline (200 μM), pH 7.4). […]
(§4) Following a 10 minute incubation for cells (6 minute incubation for rat synaptosomes) at 37° C. with radioligand, the reactions were terminated by rapid filtration over a 96-well UniFilter GF/B plate, pretreated with 1% BSA, and washed 6 times with 650 μl wash buffer (ice cold PBS). Plates were dried, 35-45 μl of MicroScint™-20 (Perkin Elmer) added and incorporated radioactivity quantitated via liquid scintillation counting. Inhibition curves were analyzed using the GraphPad Prism Software package (GraphPad Software, Inc., San Diego, Calif.).
For data set [3], the system named is NET. Described as above.
Text: as §1, §2, §3, §4
A further data set concerns the target SERT (Rattus norvegicus, UniProt P31652). The data set is described as follows: 3H-5-HT uptake assay in rat brain synaptosomal preparations.
The next data set addresses hNET (Homo sapiens, UniProt P23975). The data set is described as follows: 3H-NE neurotransmitter uptake assay in HEK-293 cells expressing hNET.
The target of the next data set is hSERT (Homo sapiens, UniProt P31645). The data set is described as follows: 3H-5-HT neurotransmitter uptake assay in HEK-293 cells expressing hSERT.

As usually defined, the inhibition is the relative decrease from the control value, in per cent. For orientation: IC50 means the concentration at which inhibition is half-maximal.

T1 sequence (P31652 whole entry): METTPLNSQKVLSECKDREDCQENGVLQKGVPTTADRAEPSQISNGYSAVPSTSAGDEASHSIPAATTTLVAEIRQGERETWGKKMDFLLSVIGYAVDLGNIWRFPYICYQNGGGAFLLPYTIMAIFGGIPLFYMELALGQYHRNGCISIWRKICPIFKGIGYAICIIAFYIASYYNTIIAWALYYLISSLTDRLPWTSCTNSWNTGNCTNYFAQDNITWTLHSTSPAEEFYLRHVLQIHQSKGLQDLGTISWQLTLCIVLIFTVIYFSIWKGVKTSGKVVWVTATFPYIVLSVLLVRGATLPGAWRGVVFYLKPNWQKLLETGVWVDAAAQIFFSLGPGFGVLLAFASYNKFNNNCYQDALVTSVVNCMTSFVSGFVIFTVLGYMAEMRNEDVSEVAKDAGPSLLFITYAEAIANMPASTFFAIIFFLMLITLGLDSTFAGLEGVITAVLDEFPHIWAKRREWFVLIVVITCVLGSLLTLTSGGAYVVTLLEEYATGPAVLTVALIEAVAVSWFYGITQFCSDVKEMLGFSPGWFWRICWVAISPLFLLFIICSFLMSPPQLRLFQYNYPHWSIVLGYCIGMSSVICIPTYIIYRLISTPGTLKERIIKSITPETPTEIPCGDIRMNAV
Chain of hNET (P23975 whole entry): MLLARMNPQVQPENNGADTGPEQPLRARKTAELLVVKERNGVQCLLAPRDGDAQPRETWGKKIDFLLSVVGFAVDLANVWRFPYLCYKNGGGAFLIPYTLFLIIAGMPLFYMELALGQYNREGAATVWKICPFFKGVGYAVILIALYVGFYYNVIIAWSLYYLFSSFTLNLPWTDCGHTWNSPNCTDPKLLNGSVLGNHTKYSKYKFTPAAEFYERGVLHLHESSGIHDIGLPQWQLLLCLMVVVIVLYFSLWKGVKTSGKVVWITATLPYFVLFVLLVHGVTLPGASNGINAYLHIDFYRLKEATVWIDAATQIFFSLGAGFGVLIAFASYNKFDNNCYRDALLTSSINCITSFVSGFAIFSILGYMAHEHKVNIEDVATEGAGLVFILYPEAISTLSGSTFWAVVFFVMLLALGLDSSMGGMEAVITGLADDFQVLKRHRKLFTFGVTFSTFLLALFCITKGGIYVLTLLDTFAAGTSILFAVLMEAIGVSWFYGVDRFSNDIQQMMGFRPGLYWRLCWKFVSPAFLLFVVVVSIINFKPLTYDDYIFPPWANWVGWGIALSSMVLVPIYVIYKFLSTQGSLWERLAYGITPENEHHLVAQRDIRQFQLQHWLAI
T2 sequence (Q63380 1-617): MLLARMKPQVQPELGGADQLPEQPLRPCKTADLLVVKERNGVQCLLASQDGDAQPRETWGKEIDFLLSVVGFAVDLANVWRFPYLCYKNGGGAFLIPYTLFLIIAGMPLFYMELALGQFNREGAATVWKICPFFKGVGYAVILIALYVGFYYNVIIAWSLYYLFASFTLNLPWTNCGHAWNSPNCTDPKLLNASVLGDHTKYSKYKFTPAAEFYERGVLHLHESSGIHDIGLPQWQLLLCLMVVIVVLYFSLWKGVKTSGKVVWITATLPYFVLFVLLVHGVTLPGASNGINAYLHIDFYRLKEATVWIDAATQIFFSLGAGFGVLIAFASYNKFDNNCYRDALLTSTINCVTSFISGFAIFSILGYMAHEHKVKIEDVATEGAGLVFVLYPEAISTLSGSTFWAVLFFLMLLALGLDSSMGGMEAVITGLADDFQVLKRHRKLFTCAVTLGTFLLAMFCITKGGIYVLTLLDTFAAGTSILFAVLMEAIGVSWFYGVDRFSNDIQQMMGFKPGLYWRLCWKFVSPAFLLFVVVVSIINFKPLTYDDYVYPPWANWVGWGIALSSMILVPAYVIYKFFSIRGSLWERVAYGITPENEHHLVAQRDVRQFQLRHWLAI
Chain of NET (Rattus norvegicus, UniProt Q63380) (Q63380 1-617): as above
Chain of SERT (P31652 whole entry): as the sequence (P31652 whole entry) above
Chain of hSERT (P31645 whole entry): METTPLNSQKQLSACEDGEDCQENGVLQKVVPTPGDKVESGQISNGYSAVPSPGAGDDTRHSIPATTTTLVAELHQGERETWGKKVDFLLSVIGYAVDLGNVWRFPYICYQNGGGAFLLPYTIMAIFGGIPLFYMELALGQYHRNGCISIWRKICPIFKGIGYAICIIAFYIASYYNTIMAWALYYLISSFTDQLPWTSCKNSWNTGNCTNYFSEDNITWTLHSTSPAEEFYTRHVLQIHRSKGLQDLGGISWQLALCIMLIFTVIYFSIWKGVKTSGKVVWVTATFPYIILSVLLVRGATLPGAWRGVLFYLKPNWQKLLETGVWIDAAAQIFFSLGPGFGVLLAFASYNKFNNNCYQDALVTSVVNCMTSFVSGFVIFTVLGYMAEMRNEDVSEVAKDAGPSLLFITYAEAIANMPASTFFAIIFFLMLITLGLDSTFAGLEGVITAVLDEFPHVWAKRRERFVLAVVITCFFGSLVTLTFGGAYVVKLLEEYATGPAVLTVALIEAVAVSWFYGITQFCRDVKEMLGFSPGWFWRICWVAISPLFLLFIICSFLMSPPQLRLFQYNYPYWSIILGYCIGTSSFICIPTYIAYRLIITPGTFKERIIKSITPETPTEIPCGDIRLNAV
Experimental for hNET: as §1
HEK-293 derived cell lines stably-transfected with hSERT or, hNET, respectively, were grown in Dulbecco's modified Eagles Medium (DMEM) supplemented with 10% dialyzed FBS (for hSERT) or FBS (for hNET), 100 μg/ml penicillin, 100 μg/ml streptomycin, 2 mM L-glutamine and 250 μg/ml of the aminoglycoside antibiotic G418 in a 5% CO2 humidified incubator at 37° C. When cultures reached 50-80% confluence, the cells were washed thoroughly in PBS (without Ca^2+ and Mg^2+) and lifted with 5 mM EDTA in PBS. Cells were harvested by centrifugation at 1100 rpm for 5 minutes, the supernatant was discarded, and the cell pellet resuspended, by gentle trituration, in room temperature Krebs-Ringer bicarbonate buffer containing HEPES (10 mM), CaCl2 (2.2 mM), ascorbic acid (200 μM) and pargyline (200 μM), pH 7.4. The final concentration of cells in the cell suspension was 7.5×10^4 cells/ml for hSERT and 12.5×10^4 cells/ml for hNET. […]
as §4
Experimental for hSERT: as §1
HEK-293 derived cell lines stably-transfected with hSERT or, hNET, respectively, were grown in Dulbecco's modified Eagles Medium (DMEM) supplemented with 10% dialyzed FBS (for hSERT) or FBS (for hNET), 100 μg/ml penicillin, 100 μg/ml streptomycin, 2 mM L-glutamine and 250 μg/ml of the aminoglycoside antibiotic G418 in a 5% CO2 humidified incubator at 37° C. […]
as §4
Text for rat NET: (§5) To monitor SERT and NET transporter occupancy, an ex vivo occupancy assay was used in which the initial rate of association of a SERT- or NET-selective radioligand, respectively, to the tissue homogenates was monitored. The initial rate of association of radioligand is directly proportional to the level of free (unoccupied) transporter.
The spinal cord was harvested by hydraulic extrusion with PBS. An 18 gauge needle was inserted into the spinal column near the iliac crest and the buffer injected into the spinal column with the resultant extrusion of the spinal cord, intact. […]
(§6) Total and non-specific binding was determined at a single concentration of radioligand (in parentheses): [^3H]-citalopram (3 nM) and [^3H]-nisoxetine (5 nM) at SERT and NET, respectively. […] Filter plates were washed six times with wash buffer (ice-cold 50 mM Tris-HCl, 0.9% NaCl, at 4° C.) to remove unbound radioactivity. Plates were dried, 35-45 μL Microscint-20 liquid scintillation fluid (Packard BioScience Co., Meriden, Conn.) was added to each well, and plates were counted in a Packard Topcount liquid scintillation counter (Packard BioScience Co., Meriden, Conn.).
Specific binding was calculated using total (in the absence of test compound) and non-specific (determined as described above) binding from the same plate as follows: specific binding=value−non-specific binding. […]
Experimental for rat SERT: as §5
Rats were euthanized 1.25 hours post compound administration by decapitation. Following decapitation, the brain was removed and placed on to a clean metal block, on ice. A parasagittal cut was made through the entire brain, around 4 mm lateral to the midline. The lateral cortex pieces were discarded. A midsagittal cut was made through the entire length of the brain. The block of brain corresponding to each hemisphere was then placed on to the respective lateral cut surface, such that the midsagittal surface was uppermost. A single cut was made parallel to, and about 1 mm dorsal to, the corpus callosum to remove a cortex piece, which was frozen on dry ice prior to storage at −80° C. The spinal cord was harvested by hydraulic extrusion with PBS. An 18 gauge needle was inserted into the spinal column near the iliac crest and the buffer injected into the spinal column with the resultant extrusion of the spinal cord, intact. The lumbar spinal cord (approximately 1-1.5 cm in length) was rapidly dissected and frozen on dry ice prior to storage at −80° C.
The frozen tissue pieces were weighed and kept on dry ice prior to homogenization. […]
as §6
Specific binding was calculated using total (in the absence of test compound) and non-specific (determined as described above) binding from the same plate as follows: specific binding=value−non-specific binding. Data then were analyzed by linear regression analysis with the GraphPad Prism Software package (GraphPad Software, Inc., San Diego, Calif.). The initial rates of association of [^3H]-citalopram or [^3H]-nisoxetine, equal to the slope of the straight line, were determined by fitting data points, specific binding (cpm) versus time (min). The average of the initial rates of [^3H]-citalopram or [^3H]-nisoxetine association from vehicle-dosed animals was calculated. […]

Take `CNCC[C@@H](Oc1ccccc1C)c1ccccc1` [Atomoxetine, atomoxetine, reference compound]: in the data set on rat formalin pain model (rat formalin model), the “SNRI Dose Response ED50 (Confidence Interval)” value was 24.4 (14.5-41.1) (n = 6-12) mg/kg. At rat SERT (cortex), this molecule gave a receptor occupancy at 3 mg/kg of 35 ± 9% and a receptor occupancy at 10 mg/kg of 64 ± 5%. The “Plasma concentrations of SNRI alone versus in combination with morphine” value in data set [1] is “equivalent”.
With `Fc1cc(F)c(OCc2ccccc2C2CCNCC2)c(F)c1` [Compound 1, 4-[2-(2,4,6-trifluoro-phenoxymethyl)-phenyl]-piperidine], the inhibition at 10 mg/kg in the data set with rat formalin pain model (Rattus norvegicus, single administration of 10 mg/kg compound 1 IP, mean±SEM, read-out: inhibition of flinching behavior) stood at 20 ± 7%. The “pain behavior during phase 1” value in the data set on rat formalin pain model (first 10 minutes post formalin injection (acute pain processing)) is “Decreases in pain behavior were also observed”. In the data set on rat formalin pain model (rat formalin model), the “SNRI Dose Response ED50 (Confidence Interval)” value is given as 20.0 (14.0-28.4) mg/kg. The “interaction with morphine (shift of morphine dose response curve)” value in the data set with rat formalin pain model (rat formalin model, 3 mg/kg IP compound 1 plus morphine SC, 3 mg/kg) was “failed to significantly shift the morphine dose response curve”. The “interaction with oxycodone (ED50 shift, isobolographic analysis)” value in the data set on rat formalin pain model (rat formalin model, 10 mg/kg IP compound 1 plus oxycodone SC) is on record as “synergistic interaction”. Moreover, the “interaction with morphine (ED50 shift, isobolographic analysis)” value with rat formalin pain model (rat formalin model, compound 1 or atomoxetine 10 mg/kg IP, duloxetine 3, 5 or 10 mg/kg IP, morphine SC) is on record as “synergistic interaction”. In addition, the receptor occupancy at 3 mg/kg on rat SERT (lumbar spinal cord) amounted to 23 ± 14%; on rat NET (3 mg/kg IP), 77 ± 15%. Moreover, the receptor occupancy at 10 mg/kg was determined as 46 ± 20% on rat SERT (lumbar spinal cord) and 81 ± 6% on rat NET (10 mg/kg IP). For the same molecule, the “NET pIC50” value at NET [2] was determined as 8.9. The NET selectivity in the data set with NET [3] (Rat brain synaptosomes, 10**(NET pIC50 − SERT pIC50)) was found to be 10; at hNET, 4. The “selectivity for NET (ratio of SERT to NET IC50 values)” value in the data set on NET [3] (rat brain synaptosomal preparations) is listed as “about 10 fold”; at hNET (human recombinant cell-based assay) it was “about 4 fold”. Further, the IC50 is 12.6 nM against SERT, 2.51 nM against hNET and 10 nM against hSERT. For the same molecule, the “Plasma concentrations of SNRI alone versus in combination with morphine” value in data set [1] is given as “equivalent”.
Take `CNCC[C@H](Oc1cccc2ccccc12)c1cccs1` [Duloxetine, duloxetine, reference compound]: the morphine sparing effect entry with rat formalin pain model (duloxetine 5 mg/kg IP co-administered with ondansetron 3 mg/kg IP, with morphine 1 mg/kg SC) is recorded as “a morphine sparing effect was observed”. The “inhibition of flinching behavior (in words)” value with rat formalin pain model (single administration of 10 mg/kg duloxetine) was “significant inhibition of flinching behavior”.
Consider `CN1CC[C@]23c4c5ccc(O)c4O[C@H]2[C@@H](O)C=C[C@H]3[C@H]1C5` [Morphine, morphine, reference compound], for which the inhibition at 1 mg/kg with rat formalin pain model (Rattus norvegicus, sc, read-out: inhibition of flinching behavior) worked out at 13 ± 11%.
On to `COc1ccc2c3c1O[C@H]1C(=O)CC[C@@]4(O)[C@@H](C2)N(C)CC[C@]314` [Oxycodone, oxycodone], for which the “Plasma concentrations alone versus combination of compound 1 and oxycodone” value in data set [1] (compound 1 10 mg/kg IP, oxycodone 3 mg/kg SC) is listed as “equivalent”.
